Patent US10227331B2 (priority 2015, dated 2019)

How the values were obtained:
IMP-1 = IMP-1 (Serratia marcescens, UniProt P52699); test: biochemical; format: biochemical; settings: CCF2-FA substrate, 2 hours at 25° C; read-out: IMP-1 IC50
In short: (§1)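 Test compound, enzyme and the FRET cephalosporin substrate CCF2-FA are incubated together for 2 hours at 25° C. Cleavage is followed by fluorescence, and IC50 values are derived from semi-logarithmic inhibition curves fitted with a 4-parameter model.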

NDM-1 = NDM-1 (Klebsiella pneumoniae, UniProt C7C422); test: biochemical; format: biochemical; settings: CCF2-FA substrate, 2 hours at 25° C; read-out: NDM-1 IC50
In short: as §1

VIM-1 = VIM-1 (Pseudomonas aeruginosa (strain ATCC 15692 / DSM 22644 / CIP 104116 / JCM 14847 / LMG 12228 / 1C / PRS 101 / PAO1), UniProt A0A0F7KYQ8); test: biochemical; settings: CCF2-FA substrate, 2 hours at 25° C
In short: as §1

[1] = test system: Escherichia coli expressing NDM-1 (CLB30005, CLB30016); format: cell-based; settings: with imipenem 1 μg/ml; 95% inhibition of bacterial growth
In short: (§2)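 Clinical strains grown overnight on blood agar, then diluted 1:100 in 1.1× CAMHB and exposed to test compound with imipenem at 1 μg/ml. Incubation was 22–24 h at 35° C; growth was read by absorbance to find the compound concentration restoring imipenem susceptibility.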

[2] = test system: Klebsiella pneumoniae expressing VIM-1 (IHMA599644); format: cell-based; settings: with imipenem 1 μg/ml; 95% inhibition of bacterial growth
In short: as §2

[3] = test system: Serratia marcescens expressing IMP-1 (CL5741); format: cell-based; settings: with imipenem 1 μg/ml; 95% inhibition of bacterial growth
In short: as §2

[4] = test system: P. aeruginosa expressing IMP-1, efflux+ (MB9798); format: cell-based, Pseudomonas aeruginosa; settings: for P. aeruginosa expressing IMP-1, efflux+ (MB9798) MITC95: imipenem at 2 μg/mL, in the presence of a class A, C, D serine β-lactamase inhibitor closely related to relebactam; for Efflux ratio: ratio MITC95 PA_9798/MITC95 PA_9799
From the text: (§3) The strain background is Pseudomonas aeruginosa PAO1.

[5] = test system: P. aeruginosa expressing IMP-1, efflux− (MB9799); test: Efflux: concentration of MBL inhibitor which restores susceptibility to imipenem; format: cell-based, Pseudomonas aeruginosa; settings: imipenem at 2 μg/mL, in the presence of a class A, C, D serine β-lactamase inhibitor closely related to relebactam
From the text: as §3

IMP-1, sequence (P52699 whole entry, looked up, species assumed): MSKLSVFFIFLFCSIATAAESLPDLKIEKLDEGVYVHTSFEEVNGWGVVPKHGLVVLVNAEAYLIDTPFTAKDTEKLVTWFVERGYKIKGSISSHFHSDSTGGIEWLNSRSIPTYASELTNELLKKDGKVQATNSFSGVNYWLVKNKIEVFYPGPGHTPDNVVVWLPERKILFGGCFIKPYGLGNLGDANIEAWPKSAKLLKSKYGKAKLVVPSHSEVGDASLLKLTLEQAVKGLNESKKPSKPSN
NDM-1, sequence (C7C422 whole entry, looked up, species assumed): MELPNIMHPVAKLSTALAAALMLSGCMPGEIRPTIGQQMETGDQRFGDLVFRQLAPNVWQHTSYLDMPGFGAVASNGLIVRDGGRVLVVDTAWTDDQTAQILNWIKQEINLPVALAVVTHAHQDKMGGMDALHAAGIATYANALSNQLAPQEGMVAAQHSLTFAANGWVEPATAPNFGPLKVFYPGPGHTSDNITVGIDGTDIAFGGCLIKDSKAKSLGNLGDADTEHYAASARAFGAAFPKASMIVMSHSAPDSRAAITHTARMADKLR

| Structure (SMILES) | IC50 (IMP-1) [nM] | IC50 (NDM-1) [nM] | IC50 (VIM-1) [nM] | Escherichia coli expressing NDM-1 (CLB30016) MITC95 [1] [µM] | Klebsiella pneumoniae expressing VIM-1 (IHMA599644) MITC95 [2] [µM] | Serratia marcescens expressing IMP-1 (CL5741) MITC95 [3] [µM] | P. aeruginosa expressing IMP-1, efflux+ (MB9798) MITC95 [4] [µM] | Efflux ratio [4] | P. aeruginosa expressing IMP-1, efflux− (MB9799) MITC95 [5] [µM] |
| --- | --- | --- | --- | --- | --- | --- | --- | --- | --- |
| NCCS(=O)(=O)c1ccc(-c2cnc(N)c(F)c2)c(-c2nnn[nH]2)c1S(N)(=O)=O.O=C(O)C(F)(F)F [Example 168, 2-((4-(6-amino-5-fluoropyridin-3-yl)-2-sulfamoyl-3-(1H-tetrazol-5-yl)phenyl)sulfonyl)ethanaminium 2,2,2-trifluoroacetate] | 2.02 | 2.5 | 0.515 | 1.563 | 6.25 | 3.125 | 6.25 | 4.00 | 1.563 |
| COc1cc(-c2ccc(S(=O)(=O)CCN)c(S(N)(=O)=O)c2-c2nnn[nH]2)cnc1N.O=C(O)C(F)(F)F [Example 169, 2-((4-(6-amino-5-methoxypyridin-3-yl)-2-sulfamoyl-3-(1H-tetrazol-5-yl)phenyl)sulfonyl)ethanaminium 2,2,2-trifluoroacetate] | 5.27 | 6 | 1.03 | 0.7813 | 6.25 | 3.125 | 25 | 15.99 | 1.563 |
| Cc1nc(N)ccc1-c1ccc(S(=O)(=O)CCN)c(S(N)(=O)=O)c1-c1nnn[nH]1.O=C(O)C(F)(F)F [Example 170, 2-((4-(6-amino-2-methylpyridin-3-yl)-2-sulfamoyl-3-(1H-tetrazol-5-yl)phenyl)sulfonyl)ethanaminium 2,2,2-trifluoroacetate] | 2.87 | 3.48 | 1.01 | 0.3906 | 3.125 | 0.7813 | 6.25 | 4.00 | 1.563 |
| NCCS(=O)(=O)c1ccc(-c2cccc3cnccc23)c(-c2nnn[nH]2)c1S(N)(=O)=O.O=C(O)C(F)(F)F [Example 171] | 1.02 | 0.306 | 0.272 | 1.563 | 6.25 | 3.125 | 12.5 | 8.00 | 1.563 |
| Cc1cc(-c2ccc(S(=O)(=O)CCN)c(S(N)(=O)=O)c2-c2nnn[nH]2)cnc1N.O=C(O)C(F)(F)F [Example 172, 2-((4-(6-amino-5-methylpyridin-3-yl)-2-sulfamoyl-3-(1H-tetrazol-5-yl)phenyl)sulfonyl)ethanaminium 2,2,2-trifluoroacetate] | 4.9 | 2.98 | 0.193 | 0.25 | 3.125 | 1.281 | 6.25 | 3.51 | 1.781 |
| NCCS(=O)(=O)c1ccc(-c2cccc3cn[nH]c23)c(-c2nnn[nH]2)c1S(N)(=O)=O.O=C(O)C(F)(F)F [Example 173, 2-((4-(1H-indazol-7-yl)-2-sulfamoyl-3-(1H-tetrazol-5-yl)phenyl)sulfonyl)ethanaminium 2,2,2-trifluoroacetate] | 0.16 | 0.338 | 0.264 | 0.25 | 0.8906 | 0.8906 | 0.8906 | 2.00 | 0.4453 |
| NCCS(=O)(=O)c1ccc(-c2ccc3scnc3c2)c(-c2nnn[nH]2)c1S(N)(=O)=O.O=C(O)C(F)(F)F [Example 174, 2-((4-(benzo[d]thiazol-5-yl)-2-sulfamoyl-3 (1H-tetrazol-5-yl)phenyl)sulfonyl)ethanaminium 2,2,2-trifluoroacetate] | 0.22 | 0.392 | 0.14 | 0.3906 | 1.563 | 0.7813 | 3.125 | 8.00 | 0.3906 |
| Nc1nc2cccc(-c3ccc(S(=O)(=O)[C@H]4C[C@H](N)C4)c(S(N)(=O)=O)c3-c3nn[nH]n3)c2[nH]1 [Example 175, 3-(2-amino-3H-benzo[d]imidazol-4-yl)-6-((1r,3r)-3-aminocyclobutylsulfonyl)-2-(2H-tetrazol-5-yl)benzenesulfonamide] | 2.2 | 0.149 | 0.478 | 0.7813 | 1.563 | 1.563 | 0.7813 | 1.00 | 0.7813 |
| Nc1nc2cccc(-c3ccc(S(=O)(=O)[C@H]4C[C@@H](N)C4)c(S(N)(=O)=O)c3-c3nn[nH]n3)c2[nH]1 [Example 176, 3-(2-amino-3H-benzo[d]imidazol-4-yl)-6-((1s, 3s)-3-aminocyclobutylsulfonyl)-2-(2H-tetrazol-5-yl)benzenesulfonamide] | 1.09 | 0.25 | 0.831 | 0.7813 | 1.563 | 0.7813 | 0.7813 | 1.00 | 0.7813 |
| Nc1nc2cccc(-c3ccc(S(=O)(=O)[C@H]4CC[C@@H](N)CC4)c(S(N)(=O)=O)c3-c3nn[nH]n3)c2[nH]1 [Example 177, 3-(2-amino-3H-benzo[d]imidazol-4-yl)-6-((1s,4s)-4-aminocyclohexylsulfonyl)-2-(2H-tetrazol-5-yl)benzenesulfonamide] | 1.35 | 0.264 | 0.293 | 0.7813 | 1.563 | 0.7813 | 0.7813 | 1.00 | 0.7813 |
| Nc1nc2cccc(-c3ccc(S(=O)(=O)[C@H]4CC[C@H](N)CC4)c(S(N)(=O)=O)c3-c3nn[nH]n3)c2[nH]1 [Example 178, 3-(2-amino-3H-benzo[d]imidazol-4-yl)-6-((1r,4r)-4-aminocyclohexylsulfonyl)-2-(2H-tetrazol-5-yl)benzenesulfonamide] | 0.99 | 0.275 | 0.66 | 0.3906 | 1.563 | 0.7813 | 0.7813 | 1.00 | 0.7813 |
| Nc1nc2c(-c3ccc(S(=O)(=O)[C@H]4C[C@H](N)C4)c(S(N)(=O)=O)c3-c3nn[nH]n3)cccc2s1 [Example 179] | 0.135 | 0.106 | 0.322 | 0.7813 | 1.563 | 1.563 | 0.7813 | 0.50 | 1.563 |
| Nc1nc2c(-c3ccc(S(=O)(=O)[C@H]4C[C@@H](N)C4)c(S(N)(=O)=O)c3-c3nn[nH]n3)cccc2s1 [Example 180, 3-(2-aminobenzo[d]thiazol-4-yl)-6-((1s,3s)-3-aminocyclobutylsulfonyl)-2-(2H-tetrazol-5-yl)benzenesulfonamide] | 0.26 | 0.0833 | 0.196 | 3.125 | 3.125 | 1.563 | 0.7813 | 1.00 | 0.7813 |
